Results as given in ChEMBL document CHEMBL1149709, “Synthesis and SAR of 2-aryl pyrido[2,3-d]pyrimidines as potent mGlu5 receptor antagonists” (Bioorg Med Chem Lett, 2007).
pIC50: −log10 of the molar value.

Test system: Rattus norvegicus
Experiment: Effect on rat monosodium iodoacetate model of osteoarthritis pain assessed as inhibition of change in hind paw weight at 10 mg/kg, po after 2 hrs
Type: organism-based
Design: dose 10 mg/kg, route oral
Details: in vivo; call rule not given here

| Compound | Activity |
| --- | --- |
| COc1cc(C#N)cc(-c2ncc3ccc(C)nc3n2)c1 | Active |

Target: Metabotropic glutamate receptor 5 (Rattus norvegicus, UniProt P31424)
Sequence (P31424 whole entry): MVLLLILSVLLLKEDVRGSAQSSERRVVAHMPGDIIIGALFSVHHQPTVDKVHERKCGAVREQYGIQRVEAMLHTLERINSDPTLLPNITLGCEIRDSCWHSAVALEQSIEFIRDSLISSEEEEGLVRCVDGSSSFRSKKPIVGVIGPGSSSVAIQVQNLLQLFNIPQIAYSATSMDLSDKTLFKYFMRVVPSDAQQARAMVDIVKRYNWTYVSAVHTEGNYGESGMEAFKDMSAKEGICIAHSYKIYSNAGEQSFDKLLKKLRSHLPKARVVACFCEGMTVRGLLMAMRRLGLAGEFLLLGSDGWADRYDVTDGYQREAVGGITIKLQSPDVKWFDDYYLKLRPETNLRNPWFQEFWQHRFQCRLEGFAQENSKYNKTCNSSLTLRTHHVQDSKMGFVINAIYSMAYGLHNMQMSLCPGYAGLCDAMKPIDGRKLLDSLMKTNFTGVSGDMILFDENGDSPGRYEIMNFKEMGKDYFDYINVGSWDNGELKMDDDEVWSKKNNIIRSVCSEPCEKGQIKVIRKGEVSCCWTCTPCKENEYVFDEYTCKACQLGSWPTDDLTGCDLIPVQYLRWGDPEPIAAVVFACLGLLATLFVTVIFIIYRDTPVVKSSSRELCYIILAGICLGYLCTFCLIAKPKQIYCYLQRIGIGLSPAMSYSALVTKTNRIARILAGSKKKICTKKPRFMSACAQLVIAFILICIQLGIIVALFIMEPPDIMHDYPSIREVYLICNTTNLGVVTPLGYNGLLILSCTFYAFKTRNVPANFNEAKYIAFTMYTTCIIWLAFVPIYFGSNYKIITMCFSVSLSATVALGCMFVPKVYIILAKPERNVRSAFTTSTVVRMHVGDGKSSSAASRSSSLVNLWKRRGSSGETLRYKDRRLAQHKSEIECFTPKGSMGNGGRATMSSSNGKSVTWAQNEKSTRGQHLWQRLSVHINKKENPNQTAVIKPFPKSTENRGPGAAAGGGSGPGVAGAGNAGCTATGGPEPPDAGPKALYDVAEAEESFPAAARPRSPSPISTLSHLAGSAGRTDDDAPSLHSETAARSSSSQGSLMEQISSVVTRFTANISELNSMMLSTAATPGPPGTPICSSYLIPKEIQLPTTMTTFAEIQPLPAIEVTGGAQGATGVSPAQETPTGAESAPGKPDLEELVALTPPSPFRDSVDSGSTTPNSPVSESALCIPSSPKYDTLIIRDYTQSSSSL
Experiment: Antagonistic activity at rat mGluR5 expressed in CHO cells assessed as inhibition of quisqualate stimulated calcium mobilization by FLIPR technology
Type: functional, cell-based
Details: not given

| Compound | pIC50 |
| --- | --- |
| COc1cccc(-c2ncc3ccc(C)nc3n2)c1 | 5.82 |
| Cc1ccc2cnc(-c3cccc(C#N)c3)nc2n1 | 6.62 |
| Cc1ccc2cnc(-c3cccc(S(C)(=O)=O)c3)nc2n1 | < 4.52 |
| COc1ccccc1-c1ncc2ccc(C)nc2n1 | < 4.52 |
| Cc1cccc(-c2ncc3ccc(C)nc3n2)c1 | 7.28 |
| COC(=O)c1ccc(-c2ncc3ccc(C)nc3n2)cc1 | < 4.52 |
| Cc1ccc2cnc(-c3ccc(Br)cc3)nc2n1 | < 4.52 |
| COc1cc(-c2ncc3ccc(C)nc3n2)cc(OC)c1OC | < 4.52 |
| Brc1cccc(-c2ncc3cccnc3n2)c1 | 6.48 |
| COc1cc(C#N)cc(-c2ncc3cccnc3n2)c1 | 8.31 |
| Cc1cc(F)cc(-c2ncc3cccnc3n2)c1 | 6.49 |
| Cc1ccc2cnc(-c3ccc(C#N)cc3)nc2n1 | < 4.52 |
| Cc1ccc2cnc(-c3ccc(Cl)c(Cl)c3)nc2n1 | < 4.52 |
| Cc1ccc2cnc(-c3ccc(Cl)cc3Cl)nc2n1 | < 4.52 |
| Cc1ccc2cnc(-c3cc(Cl)cc(Cl)c3)nc2n1 | 9.14 |
| COc1cc(OC)cc(-c2ncc3ccc(C)nc3n2)c1 | 6.75 |
| N#Cc1cccc(-c2ncc3cccnc3n2)c1 | < 4.58 |
| Clc1cc(Cl)cc(-c2ncc3cccnc3n2)c1 | 6.64 |
| Cc1cc(F)cc(-c2ncc3ccc(C)nc3n2)c1 | 7.40 |
| COc1cc(C#N)cc(-c2ncc3ccc(C)nc3n2)c1 | 8.92 |
| Cc1ccc2cnc(-c3ccccc3)nc2n1 | 5.57 |
| Cc1ccc2cnc(-c3cccc(CN)c3)nc2n1 | < 4.52 |
| Cc1ccc2cnc(-c3cccc(Br)c3)nc2n1 | 7.42 |

Test system: Rattus norvegicus
Experiment: Effect on rat monosodium iodoacetate model of osteoarthritis pain assessed as inhibition of change in hind paw weight at 10 mg/kg, po after 4 hrs
Type: organism-based
Design: dose 10 mg/kg, route oral
Details: in vivo

| Compound | Activity |
| --- | --- |
| COc1cc(C#N)cc(-c2ncc3ccc(C)nc3n2)c1 | Active |
